Data on ten molecules can be found in patent US20250353864A1, “INDAZOLE CONTAINING MACROCYCLES AND THEIR USE” (BLOSSOMHILL THERAPEUTICS, INC., priority 2022, published 2025).

Type in all cases: biochemical
In one assay the target is EGFR L858R/T790M mutant (Homo sapiens (Human), UniProt P00533, L858R/T790M). Nature of the assay: HotSpot radiometric kinase assay, EGFR L858R/T790M mutant. Particulars: 10 μM ATP. In a few lines: (§1)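 IC50 values derive from curve fits of 33P incorporation measured by P81 filter binding. ATP was 10 μM final; incubation lasted 120 min at room temperature after ~20 min compound preincubation.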

Assay [1] addresses EGFR L858R/T790M/C797S mutant (Homo sapiens (Human), UniProt P00533, C797S/L858R/T790M). In words: HotSpot radiometric kinase assay, EGFR L858R/T790M/C797S mutant. To be noted: 10 μM ATP. In a few lines:
as §1

The target of the next assay is EGFR Δ746-750 mutant (Homo sapiens (Human), UniProt P00533, DEL746-750). Nature of the assay: HotSpot radiometric kinase assay, EGFR Δ746-750 mutant. To be noted: 10 μM ATP. In a few lines: as §1
EGFR Δ746-750 mutant, sequence (P00533 other isoform, or with tags, fused parts or gaps del 1-668/del 746-750 limits assumed): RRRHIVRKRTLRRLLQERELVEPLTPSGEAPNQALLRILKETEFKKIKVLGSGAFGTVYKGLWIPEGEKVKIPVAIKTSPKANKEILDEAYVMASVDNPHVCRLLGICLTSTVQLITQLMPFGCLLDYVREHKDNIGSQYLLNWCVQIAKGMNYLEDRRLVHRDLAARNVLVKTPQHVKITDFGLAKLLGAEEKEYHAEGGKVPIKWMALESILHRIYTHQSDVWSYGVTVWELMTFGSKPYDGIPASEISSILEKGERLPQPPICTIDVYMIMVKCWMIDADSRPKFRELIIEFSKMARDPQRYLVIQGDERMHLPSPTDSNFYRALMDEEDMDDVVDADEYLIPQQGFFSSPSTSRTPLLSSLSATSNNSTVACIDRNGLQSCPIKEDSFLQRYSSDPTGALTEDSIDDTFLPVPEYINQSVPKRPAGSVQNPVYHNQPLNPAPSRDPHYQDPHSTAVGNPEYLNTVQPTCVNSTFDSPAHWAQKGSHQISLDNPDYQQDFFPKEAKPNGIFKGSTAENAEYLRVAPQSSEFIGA
The target of a further assay is EGFR (D770_N771insNPG) (Homo sapiens (Human), UniProt P00533, INS770NPG). In words: HotSpot radiometric kinase assay, EGFR (D770_N771insNPG). Particulars: 10 μM ATP, read-out: EGFR (Δ770_N771insNPG) IC50. In a few lines:
as §1

The next assay has as its target CLK2 (Homo sapiens (Human), UniProt P49760). Nature of the assay: Inhibition of CLK2 kinase activity evaluated at Nanosyn (ADP-Glo). To be noted: ADP-Glo luminescence. In a few lines: (§2)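 Percent inhibition derived from luminescent ADP detection (ADP-Glo), normalised to DMSO-only and enzyme-free wells. Reactions ran in HEPES pH 7.5 buffer with Mg2+, Triton X-100 and BSA, 1% DMSO, ATP-initiated, for an assay-specific time.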

A further assay concerns the target CLK4 (Homo sapiens (Human), UniProt Q9HAZ1). In words: Inhibition of CLK4 kinase activity evaluated at Nanosyn (ADP-Glo). Particulars: ADP-Glo luminescence. In a few lines: as §2
The target in a further assay is EGFR L858R mutant (Homo sapiens (Human), UniProt P00533, L858R). Nature of the assay: HotSpot radiometric kinase assay, EGFR L858R mutant. Particulars: 10 μM ATP. In a few lines:
as §1

For another assay, the target named is CLK1 (Homo sapiens (Human), UniProt P49759). In words: Inhibition of CLK1 kinase activity evaluated at Nanosyn (ADP-Glo). To be noted: ADP-Glo luminescence. In a few lines:
as §2

In the next assay the target is CLK3 (Homo sapiens (Human), UniProt P49761). In words: Inhibition of CLK3 kinase activity evaluated at Nanosyn (ADP-Glo). Particulars: ADP-Glo luminescence. In a few lines: as §2
CLK3, sequence (P49761 whole entry): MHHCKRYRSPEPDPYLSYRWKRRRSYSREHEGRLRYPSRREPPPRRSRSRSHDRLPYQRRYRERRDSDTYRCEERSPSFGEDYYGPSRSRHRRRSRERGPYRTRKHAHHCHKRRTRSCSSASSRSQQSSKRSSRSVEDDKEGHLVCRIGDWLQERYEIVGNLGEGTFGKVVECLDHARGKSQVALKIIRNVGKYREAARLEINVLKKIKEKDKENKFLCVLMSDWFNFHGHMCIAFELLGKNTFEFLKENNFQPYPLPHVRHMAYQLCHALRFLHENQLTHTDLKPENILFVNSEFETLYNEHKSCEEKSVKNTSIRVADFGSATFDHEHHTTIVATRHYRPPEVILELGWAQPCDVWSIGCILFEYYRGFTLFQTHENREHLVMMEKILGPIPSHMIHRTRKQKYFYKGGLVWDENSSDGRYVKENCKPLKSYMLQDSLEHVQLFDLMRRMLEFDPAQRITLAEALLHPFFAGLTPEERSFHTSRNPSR
A further assay concerns the target EGFR WT (Homo sapiens (Human), UniProt P00533). In words: HotSpot radiometric kinase assay (Reaction Biology), EGFR WT. To be noted: 10 μM ATP. In a few lines: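 Compounds were preincubated ~20 min with kinase/substrate in pH 7.5 Hepes buffer (MgCl2, EGTA, Brij35, BSA, Na3VO4, DTT, 1% DMSO), then ATP plus 33P-ATP was added to 10 μM final. After 120 min at room temperature, reactions were spotted on P81 filters and washed; IC50 values came from curve fits.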

Assay [2] deals with EGFR Δ746-750/C797S mutant (Homo sapiens (Human), UniProt P00533, C797S/DEL746-750). In words: HotSpot radiometric kinase assay, EGFR Δ746-750/C797S mutant. To be noted: 10 μM ATP. In a few lines:
as §1

EGFR L858R mutant, sequence (P00533 25-1210 L858R): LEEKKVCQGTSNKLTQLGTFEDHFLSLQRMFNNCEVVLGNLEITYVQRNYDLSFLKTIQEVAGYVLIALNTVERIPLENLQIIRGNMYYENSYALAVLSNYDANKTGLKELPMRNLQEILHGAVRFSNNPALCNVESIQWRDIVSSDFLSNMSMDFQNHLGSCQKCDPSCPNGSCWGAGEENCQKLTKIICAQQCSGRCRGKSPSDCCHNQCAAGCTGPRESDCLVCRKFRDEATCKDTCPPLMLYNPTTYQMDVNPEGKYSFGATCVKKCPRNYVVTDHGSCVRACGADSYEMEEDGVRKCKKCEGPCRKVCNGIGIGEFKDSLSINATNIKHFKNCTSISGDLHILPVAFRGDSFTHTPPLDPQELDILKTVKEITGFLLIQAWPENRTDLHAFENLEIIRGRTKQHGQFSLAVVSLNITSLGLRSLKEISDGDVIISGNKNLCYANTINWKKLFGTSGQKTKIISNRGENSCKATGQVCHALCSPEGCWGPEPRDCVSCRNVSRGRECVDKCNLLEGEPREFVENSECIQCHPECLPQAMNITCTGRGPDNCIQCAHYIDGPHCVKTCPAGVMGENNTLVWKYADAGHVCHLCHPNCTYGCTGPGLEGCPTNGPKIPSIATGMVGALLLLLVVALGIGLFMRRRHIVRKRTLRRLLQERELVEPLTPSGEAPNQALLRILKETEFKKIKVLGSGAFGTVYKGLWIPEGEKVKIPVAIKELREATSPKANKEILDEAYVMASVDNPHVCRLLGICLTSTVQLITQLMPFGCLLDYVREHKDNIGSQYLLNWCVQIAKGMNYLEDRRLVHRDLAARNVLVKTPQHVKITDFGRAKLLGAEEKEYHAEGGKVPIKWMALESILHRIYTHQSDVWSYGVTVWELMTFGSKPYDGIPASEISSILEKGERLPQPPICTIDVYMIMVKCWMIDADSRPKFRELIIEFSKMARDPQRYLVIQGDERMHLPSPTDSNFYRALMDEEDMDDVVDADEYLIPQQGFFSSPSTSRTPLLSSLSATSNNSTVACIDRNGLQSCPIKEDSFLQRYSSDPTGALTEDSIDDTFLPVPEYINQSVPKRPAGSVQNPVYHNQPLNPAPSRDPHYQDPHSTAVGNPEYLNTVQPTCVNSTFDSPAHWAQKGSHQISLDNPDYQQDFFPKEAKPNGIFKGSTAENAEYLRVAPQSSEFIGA
CLK4, sequence (Q9HAZ1 whole entry): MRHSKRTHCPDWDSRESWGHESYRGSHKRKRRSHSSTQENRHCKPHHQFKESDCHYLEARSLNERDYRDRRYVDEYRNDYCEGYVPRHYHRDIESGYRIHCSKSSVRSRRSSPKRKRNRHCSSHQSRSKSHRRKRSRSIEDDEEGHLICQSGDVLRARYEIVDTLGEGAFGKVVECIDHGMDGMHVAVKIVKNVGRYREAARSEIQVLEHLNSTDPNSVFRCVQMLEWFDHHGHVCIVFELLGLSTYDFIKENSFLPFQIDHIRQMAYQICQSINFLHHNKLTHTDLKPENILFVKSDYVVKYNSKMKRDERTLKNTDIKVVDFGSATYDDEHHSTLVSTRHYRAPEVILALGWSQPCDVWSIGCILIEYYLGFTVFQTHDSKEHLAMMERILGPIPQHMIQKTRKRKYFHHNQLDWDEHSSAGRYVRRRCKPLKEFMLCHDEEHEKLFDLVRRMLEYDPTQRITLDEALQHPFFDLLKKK
CLK2, sequence (P49760 whole entry): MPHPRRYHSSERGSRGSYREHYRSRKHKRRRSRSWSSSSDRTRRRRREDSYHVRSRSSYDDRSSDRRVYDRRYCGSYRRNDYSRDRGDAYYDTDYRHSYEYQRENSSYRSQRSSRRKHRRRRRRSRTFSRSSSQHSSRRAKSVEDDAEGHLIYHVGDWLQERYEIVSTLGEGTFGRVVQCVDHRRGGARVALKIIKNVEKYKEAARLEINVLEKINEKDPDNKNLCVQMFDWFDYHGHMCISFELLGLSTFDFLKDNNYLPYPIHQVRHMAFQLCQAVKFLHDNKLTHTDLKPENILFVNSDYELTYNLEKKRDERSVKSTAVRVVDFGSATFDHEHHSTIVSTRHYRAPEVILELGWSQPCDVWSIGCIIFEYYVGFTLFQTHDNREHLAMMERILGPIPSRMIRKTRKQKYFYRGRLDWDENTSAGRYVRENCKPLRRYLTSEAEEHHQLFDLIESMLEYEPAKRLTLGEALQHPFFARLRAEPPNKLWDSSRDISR
EGFR Δ746-750/C797S mutant, sequence (P00533 other isoform, or with tags, fused parts or gaps C797S/del 1-668/del 746-750 limits assumed): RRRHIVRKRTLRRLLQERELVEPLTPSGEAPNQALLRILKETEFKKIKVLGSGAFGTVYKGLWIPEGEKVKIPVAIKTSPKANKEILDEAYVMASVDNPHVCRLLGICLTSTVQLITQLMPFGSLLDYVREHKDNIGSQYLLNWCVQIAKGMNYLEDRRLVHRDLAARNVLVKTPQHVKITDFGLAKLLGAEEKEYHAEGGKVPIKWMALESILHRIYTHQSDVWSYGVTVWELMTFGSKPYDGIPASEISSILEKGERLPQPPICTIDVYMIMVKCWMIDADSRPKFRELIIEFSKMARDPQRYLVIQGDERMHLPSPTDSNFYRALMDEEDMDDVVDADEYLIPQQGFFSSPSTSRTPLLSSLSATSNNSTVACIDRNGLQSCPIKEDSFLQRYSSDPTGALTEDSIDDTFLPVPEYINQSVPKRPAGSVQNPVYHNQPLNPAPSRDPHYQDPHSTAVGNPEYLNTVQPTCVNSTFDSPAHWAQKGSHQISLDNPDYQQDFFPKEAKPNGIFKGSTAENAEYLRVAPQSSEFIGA
CLK1, sequence (P49759 whole entry): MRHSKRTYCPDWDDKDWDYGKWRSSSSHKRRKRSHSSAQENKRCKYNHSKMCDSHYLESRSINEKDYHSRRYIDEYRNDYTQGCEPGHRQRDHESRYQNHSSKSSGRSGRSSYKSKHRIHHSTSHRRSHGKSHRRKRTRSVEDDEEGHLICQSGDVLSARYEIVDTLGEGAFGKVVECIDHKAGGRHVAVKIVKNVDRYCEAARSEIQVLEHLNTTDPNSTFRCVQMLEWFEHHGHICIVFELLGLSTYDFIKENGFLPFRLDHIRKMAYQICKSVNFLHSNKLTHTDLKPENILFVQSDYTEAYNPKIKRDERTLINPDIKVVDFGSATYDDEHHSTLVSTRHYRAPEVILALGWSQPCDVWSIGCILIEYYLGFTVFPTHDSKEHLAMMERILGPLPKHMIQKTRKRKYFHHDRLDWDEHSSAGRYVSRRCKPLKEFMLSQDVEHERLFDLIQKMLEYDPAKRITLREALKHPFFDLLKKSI
EGFR (D770_N771insNPG), sequence (P00533 other isoform, or with tags, fused parts or gaps del 1-668/ins NPG behind 770 limits assumed): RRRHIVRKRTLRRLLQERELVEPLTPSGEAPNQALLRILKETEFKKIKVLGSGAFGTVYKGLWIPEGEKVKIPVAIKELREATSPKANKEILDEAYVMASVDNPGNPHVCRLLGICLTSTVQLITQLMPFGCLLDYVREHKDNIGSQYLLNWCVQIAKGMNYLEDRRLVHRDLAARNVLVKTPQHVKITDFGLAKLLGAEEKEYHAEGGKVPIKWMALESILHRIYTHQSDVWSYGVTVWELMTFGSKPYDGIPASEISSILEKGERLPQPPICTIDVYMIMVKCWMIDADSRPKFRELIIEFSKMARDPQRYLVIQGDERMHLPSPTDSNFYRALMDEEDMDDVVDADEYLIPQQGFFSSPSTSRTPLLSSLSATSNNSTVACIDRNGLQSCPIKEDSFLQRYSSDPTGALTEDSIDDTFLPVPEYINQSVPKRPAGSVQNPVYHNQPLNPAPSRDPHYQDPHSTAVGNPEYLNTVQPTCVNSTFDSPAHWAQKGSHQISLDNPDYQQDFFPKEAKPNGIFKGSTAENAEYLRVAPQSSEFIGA

In the case of `CCOc1nn(CCO)c2c1/C=C/c1n[nH]c3ccc(cc13)-c1cnn(C)c1O[C@H](C)CNC2` [Example 197, 2-[(10R,17E)-16-ethoxy-8,10-dimethyl-2,8,10,11,12,13-hexahydro-14H-3,5-ethenotripyrazolo[3,4-f:3′,4′-j:4″,3″- n][1,4]oxazacyclopentadecin-14-yl]ethan-1-ol], the half-inhibitory concentration (IC50) at EGFR L858R/T790M mutant is 4.58 nM; in [1], 2.18 nM; on EGFR Δ746-750 mutant, 62 nM; on EGFR (D770_N771insNPG) it was 217 nM; on CLK2 it was 3.06 nM; at CLK4, 1.59 nM. Further, the half-inhibitory concentration (IC50) at EGFR L858R mutant stood at 95.2 nM; at CLK1, 1.16 nM; on CLK3 it was 78.6 nM; against EGFR WT it was 194 nM; in assay [2], 29.8 nM.

As to `CC(C)Oc1nn(CCO)c2c1/C=C/c1n[nH]c3ccc(cc13)-c1cnn(C)c1O[C@@H](C#N)CN(C)C2` [Example 264, (10R,17E)-14-(2-hydroxyethyl)-8,12-dimethyl-16-[(propan-2-yl)oxy]-2,10,11,12,13,14-hexahydro-8H-3,5-ethenotripyrazolo[3,4-f:3′,4′-j:4″,3″-n][1,4]oxazacyclopentadecine-10-carbonitrile], the IC50 at EGFR L858R/T790M mutant was determined as 18 nM; in [1], 8.63 nM; at EGFR Δ746-750 mutant, 162 nM; on EGFR (D770_N771insNPG), 826 nM; at CLK2 it was 3.08 nM; on CLK4, 1.59 nM. In addition, the half-maximal inhibitory concentration (IC50) against EGFR L858R mutant worked out at 491 nM; on CLK1, 1.06 nM; at CLK3, 519 nM; against EGFR WT, 815 nM; in assay [2] it was 70 nM.

Consider `CCN1Cc2c(c(OC(C)C)nn2CC(C)(C)O)/C=C/c2n[nH]c3ccc(cc23)-c2cnn(C)c2O[C@@H](C)C1` [Example 262, 1-{(10S,17E)-12-ethyl-8,10-dimethyl-16-[(propan-2-yl)oxy]-2,8,10,11,12,13-hexahydro-14H-3,5-ethenotripyrazolo[3,4-f:3′,4′-j:4″,3″-n][1,4]oxazacyclopentadecin-14-yl}-2-methylpropan-2-ol], for which the IC50 on EGFR L858R/T790M mutant was determined as 4.98 nM; in [1] it was 1.67 nM; at EGFR Δ746-750 mutant it was 8.48 nM; on EGFR (D770_N771insNPG) it was 98.3 nM; on CLK2, 0.49 nM; at CLK4, 1.5 nM. Besides, the IC50 is 40.1 nM against EGFR L858R mutant; 0.82 nM on CLK1; 104 nM on CLK3; 94.5 nM at EGFR WT; 7.12 nM in assay [2].

On to `CC(C)Oc1nn(CCO)c2c1/C=C/c1n[nH]c3ccc(cc13)-c1cnn(C)c1OC[C@H](C)N(C1CC1)C2` [Example 213, 2-{(11S,17E)-12-cyclopropyl-8,11-dimethyl-16-[(propan-2-yl)oxy]-2,8,10,11,12,13-hexahydro-14H-3,5-ethenotripyrazolo[3,4-f:3′,4′-j:4″,3″- n][1,4]oxazacyclopentadecin-14-yl}ethan-1-ol], for which the IC50 against EGFR L858R/T790M mutant is 0.42 nM; in assay [1] it was 0.2 nM; on EGFR Δ746-750 mutant, 21.1 nM; on EGFR (D770_N771insNPG) it was 431 nM; at CLK2, 6.11 nM; on CLK4 it was 5.07 nM. In addition, the 50% inhibitory concentration (IC50) came to 82.6 nM on EGFR L858R mutant; 5.75 nM at CLK1; 1 nM on CLK3; 296 nM at EGFR WT; 5.07 nM in assay [2].

With `CCOc1nn(C)c2c1/C=C/c1n[nH]c3cc(F)c(cc13)-c1cnn(C)c1O[C@@H](C)CN(CC)C2` [Example 206, (10S,17E)-16-ethoxy-12-ethyl-19-fluoro-8,10,14-trimethyl-2,10,11,12,13,14-hexahydro-8H-3,5-ethenotripyrazolo[3,4-f:3′,4′-j:4″,3″-n][1,4]oxazacyclopentadecine], the 50% inhibitory concentration (IC50) is 0.52 nM against EGFR L858R/T790M mutant; 1.46 nM in assay [1]; 0.76 nM against EGFR Δ746-750 mutant; 43.5 nM on EGFR (D770_N771insNPG); 1.72 nM at CLK2; 3.69 nM at CLK4. The half-maximal inhibitory concentration (IC50) against EGFR L858R mutant was 1.69 nM; at CLK1 it was 1.67 nM; on CLK3 it was 477 nM; against EGFR WT it was 3.33 nM; in assay [2], 0.74 nM.

In the case of `CCOc1nn(CCO)c2c1/C=C/c1n[nH]c3ccc(cc13)-c1cnn(C)c1OC[C@H](C)N(C1CC1)C2` [Example 198, 2-[(11S,17E)-12-cyclopropyl-16-ethoxy-8,11-dimethyl-2,8,10,11,12,13-hexahydro-14H-3,5-ethenotripyrazolo[3,4-f:3′,4′-j:4″,3″- n][1,4]oxazacyclopentadecin-14-yl]ethan-1-ol], the IC50 on EGFR L858R/T790M mutant was found to be 0.89 nM; in [1], 0.26 nM; against EGFR Δ746-750 mutant, 5.84 nM; on EGFR (D770_N771insNPG), 47 nM; on CLK2, 1.61 nM; on CLK4, 1.63 nM. The IC50 worked out at 13.1 nM against EGFR L858R mutant; 0.76 nM on CLK1; 1000 nM on CLK3; 36.8 nM against EGFR WT; 1.96 nM in [2].

`Cc1nn(C)c2c1/C=C/c1n[nH]c3ccc(cc13)-c1cnn(C)c1O[C@@H]1CCCN(C2)C1` [Example 122, (10R,19E)-8,16,18-trimethyl-2,8,10,11,12,13,15,16-octahydro-3,5-etheno-10,14-methanotripyrazolo[3,4-h:3′,4′-l:4″,3″-p][1,6]oxazacycloheptadecine]: the IC50 against EGFR L858R/T790M mutant stood at 1.46 nM; in [1], 2.09 nM; against EGFR Δ746-750 mutant, 7.45 nM; at EGFR (D770_N771insNPG), 58 nM; on CLK2 it was 0.15 nM; on CLK4, 0.6 nM. Besides, the half-maximal inhibitory concentration (IC50) on EGFR L858R mutant is 11.9 nM; on CLK1, 0.27 nM; at CLK3, 21.2 nM; at EGFR WT, 94.2 nM; in [2], 6.79 nM.

With `CN1CCC(c2ccc3c(c2)O[C@@H]2CCN(CCOc4c(cnn4C)-c4ccc5[nH]nc(c5c4)/C=C/3)C2=O)CC1` [Example 112, (10R,16E)-3-methyl-13-(1-methylpiperidin-4-yl)-3,5,6,9,10,19-hexahydro-8H-20,22-etheno-7,10-methanodipyrazolo[3,4-i:4′,3′-m][1,8,5]benzodioxazacyclooctadecin-25-one], the half-inhibitory concentration (IC50) on EGFR L858R/T790M mutant turned out to be 0.21 nM; in assay [1], 0.98 nM; on EGFR Δ746-750 mutant it was 0.61 nM; on EGFR (D770_N771insNPG) it was 1.12 nM; on CLK2, 0.04 nM; at CLK4, 0.5 nM. Moreover, the IC50 against EGFR L858R mutant was found to be 1.31 nM; at CLK1, 0.17 nM; on CLK3 it was 0.19 nM; against EGFR WT it was 8.28 nM; in assay [2] it was 2.75 nM.

In the case of `C[C@H]1CN(C)Cc2c(c(OC3CC(S(C)(=O)=O)C3)nn2C)/C=C/c2n[nH]c3ccc(cc23)-c2cnn(C)c2O1` (stereo partly drawn) [Example 187, (10S,17E)-16-{I3-(methanesulfonyl)cyclobutyl|oxy}-8,10,12,14-tetramethyl-2,10,11,12,13,14-hexahydro-8H-3,5-ethenotripyrazolo[3,4-f:3′,4′-j:4″,3″-n][1,4]oxazacyclopentadecine], the half-maximal inhibitory concentration (IC50) is 0.47 nM against EGFR L858R/T790M mutant; 0.33 nM in [1]; 8.88 nM against EGFR Δ746-750 mutant; 74.7 nM at EGFR (D770_N771insNPG); 0.3 nM on CLK2; 1.35 nM on CLK4. In addition, the IC50 on EGFR L858R mutant is 6.88 nM; at CLK1, 0.48 nM; at CLK3, 311 nM; at EGFR WT, 25.9 nM; in [2] it was 7.84 nM.

For the molecule `CCOc1nn(CCO)c2c1/C=C/c1n[nH]c3ccc(cc13)-c1cnn(C)c1O[C@@H](C)CN(C(C)C)C2` [Example 151, 2-[(10S,17E)-16-ethoxy-8,10-dimethyl-12-(propan-2-yl)-2,8,10,11,12,13-hexahydro-14H-3,5-ethenotripyrazolo[3,4-f:3′,4′-j:4″,3″-n][1,4]oxazacyclopentadecin-14-yl]ethan-1-o], the half-inhibitory concentration (IC50) came out at 0.48 nM on EGFR L858R/T790M mutant; 0.46 nM in [1]; 0.3 nM against EGFR Δ746-750 mutant; 2.55 nM on EGFR (D770_N771insNPG); 0.04 nM at CLK2; 0.52 nM on CLK4. For the same molecule, the IC50 at EGFR L858R mutant stood at 0.22 nM; on CLK1, 0.24 nM; on CLK3, 23 nM; against EGFR WT, 0.87 nM; in assay [2], 0.72 nM.
